# Test results reported in PMC7377239, “Cardiovascular Effects of Polychlorinated Biphenyls and Their Major Metabolites” (Environmental Health Perspectives, 2020).
# Where a name gives a salt, the structure may show the parent alone. Read-outs that look alike come from different tables or passages of the source.
# Test system: iCell cardiomyocytes (human iPSC-derived cardiomyocytes)
# Test: Intracellular Ca2+ flux / beating parameters in iCell cardiomyocytes (FLIPR tetra), 90 min or 24 h
# Assay type: cell-based
# Details: Homo sapiens, Cardiomyocyte, 0.00 µM = 100.00; for activity at 0.1 µM: 0.10 µM
# Experimental: Details on cardiomyocyte cell culture are described in detail elsewhere ([Grimm et al. 2015b]; [Sirenko et al. 2013a]). Briefly, tissue-culture treated 384 well plates were gelatinized with 25μL per well of 0.1% (w/v) gelatin in water for 2 h at 37°C and 5% CO2 . Individual vials of cells were thawed for 4 min in a water bath maintained at 37°C. Thawed cells were resuspended in 10ml plating medium containing 1:500 (vol/vol) penicillin/streptomycin solution at room temperature (RT). Live cell counts for each cell suspension were determined by trypan blue staining and cells were further diluted to provide final cell densities of 2×10^5 viable cells/ml. Thus, 5,000 cells suspended in 25μL media were transferred per well after the gelatin solution had been discarded. Cell culture plates were rested for 30 min at RT before they were incubated for 48 h at 37°C and 5% CO2 . Then, a media exchange with 30μL of fresh maintenance medium containing 1:500 (vol/vol) penicillin/streptomycin solution was performed, and cell media were subsequently changed every 48 h for 12 d. On the experiment day, the medium was completely exchanged with either 25μL (for Ca^2+ flux assay) or 40μL (for imaging) of fresh medium.
# Responses of iCell®-cardiomyocytes to drugs and chemicals were evaluated using intracellular Ca^2+ flux measurements ([Grimm et al. 2015b]; [Sirenko et al. 2013b]). For experiments, 20 mM stock solutions of PCBs and PCB metabolites were prepared in DMSO ( 200× ). Chemical working solutions ( 5× ) were prepared using cardiomyocyte maintenance medium and contained 2.5% (vol/vol) DMSO. These chemical master plates were prepared to include all chemicals in concentration–response (0.05, 0.5, 5, 50, and 500μM ). Negative controls included media-only and vehicle control (i.e., 0.5% vol/vol DMSO in cell culture media) wells. Positive assay controls were consistent with previously published reports ([Grimm et al. 2018]) and included TAB ( 50μM ) as a cytotoxic control, and isoproterenol ( 0.1–10μM ), propranolol ( 0.1–5 μM ), cisapride ( 0.01–1μM ), and doxorubicin ( 0.1–5μM ) as chemicals associated with specific effects on beating and ion flux. Each test chemical was screened in triplicate for each concentration.
# Experiments started with the addition of 25μL of prewarmed 2× concentrated calcium dye reagent to sample wells containing 25μL maintenance media. Microplates were then acclimated for 2 h at 37°C. Following equilibration, cardiomyocyte sample wells were treated simultaneously by the addition of 12.5μL of prewarmed 5× chemical solution to iCell®-cardiomyocytes using the automated liquid handler in the FLIPR tetra (Molecular Devices). Treated cell cultures were incubated for either 90 min or 24 h. After the conclusion of the treatment period, the Ca^2+ flux was measured for 100 s at a frequency of 8 Hz using the integrated fluorescence plate reader in the FLIPR tetra (Molecular Devices) using an emission wavelength range of λemission=515–575 nm ( λexcitation=470–495 nm ). Additional instrument settings included exposure time per read of 0.05s, a gain of 2000, an excitation intensity of 30%, and an internal temperature of 37°C.
# Ca^2+ flux data were processed in R studio (version 1.0.136, with R version 3.3.2; R Development Core Team) as described elsewhere ([Blanchette et al. 2019]; [Burnett et al. 2019]). Calculated quantitative metrics included the means and coefficients of variation (CV) of the peak height, which can be indicative of cytotoxicity, inhibition, or stimulation of beating. Means of peak frequency, an indicator of positive or negative […], and CV of peak spacing, an indicator of irregular beating, were also derived from Ca^2+ flux traces. Finally, the mean ratio of the decay over rise time was calculated. Increases in the decay/rise time ratio are reflective of delayed repolarization and are a measure for QT prolongation. […]
# [1] = 1.5 h, 90min, read-out: cm.amp.avg.90min
# [2] = 1.5 h, 90min, read-out: cm.amp.cv.90min
# [3] = 1.5 h, 90min, read-out: cm.bpm.90min
# [4] = 1.5 h, 90min, read-out: cm.decay.rise.90min
# [5] = 1.5 h, 90min, read-out: cm.spacing.cv.90min
# [6] = 24 h, 24hrs, read-out: cm.amp.avg.24hrs
# [7] = 24 h, 24hrs, read-out: cm.amp.cv.24hrs
# [8] = 24 h, 24hrs, read-out: cm.bpm.24hrs
# [9] = 24 h, 24hrs, read-out: cm.decay.rise.24hrs
# [10] = 24 h, 24hrs, read-out: cm.spacing.cv.24hrs
smiles,measurement,setting,value
O=S(=O)(O)Oc1cc(Cl)c(-c2cc(Cl)ccc2Cl)cc1Cl [4-yl PCB 52 sulfate],activity at 0.01 µM,[1],103%
same,activity at 0.01 µM,[2],105%
same,activity at 0.01 µM,[3],102%
same,activity at 0.01 µM,[4],101%
same,activity at 0.01 µM,[5],100%
same,activity at 0.1 µM,[1],113%
same,activity at 0.1 µM,[2],86.3%
same,activity at 0.1 µM,[3],103%
same,activity at 0.1 µM,[4],90.8%
same,activity at 0.1 µM,[5],101%
same,activity at 1 µM,[1],102%
same,activity at 1 µM,[2],104%
same,activity at 1 µM,[3],100%
same,activity at 1 µM,[4],97.7%
same,activity at 1 µM,[5],97.4%
same,activity at 10 µM,[1],98.4%
same,activity at 10 µM,[2],103%
same,activity at 10 µM,[3],97.8%
same,activity at 10 µM,[4],97.1%
same,activity at 10 µM,[5],104%
same,activity at 100 µM,[1],0%
same,activity at 100 µM,[2],0%
same,activity at 100 µM,[3],0%
same,activity at 100 µM,[4],0%
same,activity at 100 µM,[5],0%
same,activity at 0.01 µM,[6],128%
same,activity at 0.01 µM,[7],103%
same,activity at 0.01 µM,[8],97.4%
same,activity at 0.01 µM,[9],104%
same,activity at 0.01 µM,[10],107%
same,activity at 0.1 µM,[6],135%
same,activity at 0.1 µM,[7],70.5%
same,activity at 0.1 µM,[8],94.5%
same,activity at 0.1 µM,[9],109%
same,activity at 0.1 µM,[10],110%
same,activity at 1 µM,[6],147%
same,activity at 1 µM,[7],69.4%
same,activity at 1 µM,[8],95.5%
same,activity at 1 µM,[9],104%
same,activity at 1 µM,[10],91.9%
same,activity at 10 µM,[6],167%
same,activity at 10 µM,[7],68.9%
same,activity at 10 µM,[8],92.6%
same,activity at 10 µM,[9],98.8%
same,activity at 10 µM,[10],111%
same,activity at 100 µM,[6],0%
same,activity at 100 µM,[7],0%
same,activity at 100 µM,[8],0%
same,activity at 100 µM,[9],0%
same,activity at 100 µM,[10],0%
